Reference: patent US11572590B2, “Methods for evaluating tumor cell spheroids using 3D microfluidic cell culture device” (Dana-Farber Cancer Institute, Inc., priority 2017, dated 2023)
Where two headings read alike, the source gives them in different places.

What was measured:
Assay in all cases: SelectScreen Kinase Profiling, single point inhibition and IC50 for off-target kinases
Type in all cases: biochemical
off-target kinases [1] = biological target: off-target kinases (Homo sapiens, UniProt Q15418); conditions: RPS6KA1 (RSK1), ZLYTE, ATP Km app
off-target kinases [2] = biological target: off-target kinases (Homo sapiens, UniProt P14616); conditions: INSRR (IRR), ZLYTE, ATP Km app
off-target kinases [3] = biological target: off-target kinases (Homo sapiens, UniProt P05129); conditions: PRKCG (PKC gamma); Cmpd1 1000 μM; ATP Km app; ZLYTE
off-target kinases [4] = biological target: off-target kinases (Homo sapiens, UniProt P07949, M918T); conditions: RET M918T, mutant y, LanthaScreen Binding
off-target kinases [5] = biological target: off-target kinases (Homo sapiens, UniProt O94921); conditions: CDK14 (PFTK1)/cyclin Y, LanthaScreen Binding
off-target kinases [6] = biological target: T1, off-target kinases (Homo sapiens, UniProt Q8WXR4); conditions: MYO3B (MYO3 beta), LanthaScreen Binding
T1 sequence (Q8WXR4 1-1341): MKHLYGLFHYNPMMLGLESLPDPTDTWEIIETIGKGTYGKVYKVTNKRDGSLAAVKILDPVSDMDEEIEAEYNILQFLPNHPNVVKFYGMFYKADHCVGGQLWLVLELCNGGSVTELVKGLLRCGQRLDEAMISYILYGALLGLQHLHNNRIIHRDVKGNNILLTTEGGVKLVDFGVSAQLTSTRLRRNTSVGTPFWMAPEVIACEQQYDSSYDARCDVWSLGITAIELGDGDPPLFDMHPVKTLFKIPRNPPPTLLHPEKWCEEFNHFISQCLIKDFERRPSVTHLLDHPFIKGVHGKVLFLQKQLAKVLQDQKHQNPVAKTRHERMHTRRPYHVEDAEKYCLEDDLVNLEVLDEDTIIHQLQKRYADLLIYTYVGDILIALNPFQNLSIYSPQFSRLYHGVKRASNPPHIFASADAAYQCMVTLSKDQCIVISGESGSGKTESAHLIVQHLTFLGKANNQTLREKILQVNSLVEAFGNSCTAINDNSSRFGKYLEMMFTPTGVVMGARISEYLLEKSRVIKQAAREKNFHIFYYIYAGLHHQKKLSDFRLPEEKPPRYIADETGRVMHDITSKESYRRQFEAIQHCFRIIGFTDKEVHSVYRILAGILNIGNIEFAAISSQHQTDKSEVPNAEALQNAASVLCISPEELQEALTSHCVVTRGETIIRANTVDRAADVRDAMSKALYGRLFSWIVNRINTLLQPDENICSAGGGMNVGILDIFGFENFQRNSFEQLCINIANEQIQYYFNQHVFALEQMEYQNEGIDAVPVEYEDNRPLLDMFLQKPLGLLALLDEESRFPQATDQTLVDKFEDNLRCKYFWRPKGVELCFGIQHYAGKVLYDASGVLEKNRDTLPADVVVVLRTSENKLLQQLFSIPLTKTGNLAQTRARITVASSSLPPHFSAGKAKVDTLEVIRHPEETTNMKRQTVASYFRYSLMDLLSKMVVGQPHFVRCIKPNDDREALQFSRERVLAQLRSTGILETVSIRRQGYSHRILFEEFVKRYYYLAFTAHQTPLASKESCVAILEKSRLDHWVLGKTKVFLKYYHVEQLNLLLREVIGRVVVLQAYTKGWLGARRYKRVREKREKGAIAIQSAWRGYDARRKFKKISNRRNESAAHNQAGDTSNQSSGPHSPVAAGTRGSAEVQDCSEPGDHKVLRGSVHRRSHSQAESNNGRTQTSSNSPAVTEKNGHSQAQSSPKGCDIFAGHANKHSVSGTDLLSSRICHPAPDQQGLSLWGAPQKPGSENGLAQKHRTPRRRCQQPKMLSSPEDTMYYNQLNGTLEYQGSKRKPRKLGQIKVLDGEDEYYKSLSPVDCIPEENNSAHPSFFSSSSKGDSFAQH

off-target kinases (Homo sapiens, UniProt O94921), sequence (O94921 whole entry): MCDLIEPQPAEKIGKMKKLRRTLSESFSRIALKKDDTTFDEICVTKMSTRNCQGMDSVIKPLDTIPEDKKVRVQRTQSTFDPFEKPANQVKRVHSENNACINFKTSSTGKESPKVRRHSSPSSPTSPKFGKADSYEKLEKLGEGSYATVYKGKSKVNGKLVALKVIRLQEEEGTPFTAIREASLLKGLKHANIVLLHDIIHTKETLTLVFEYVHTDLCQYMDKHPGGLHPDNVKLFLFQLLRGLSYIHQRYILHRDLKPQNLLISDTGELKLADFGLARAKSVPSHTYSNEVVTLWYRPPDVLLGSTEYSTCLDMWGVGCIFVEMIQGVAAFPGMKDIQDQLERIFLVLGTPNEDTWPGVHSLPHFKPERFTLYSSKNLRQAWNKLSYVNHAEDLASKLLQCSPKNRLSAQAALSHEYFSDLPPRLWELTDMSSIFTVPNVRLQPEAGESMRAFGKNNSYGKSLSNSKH
off-target kinases (Homo sapiens, UniProt Q15418), sequence (Q15418 whole entry): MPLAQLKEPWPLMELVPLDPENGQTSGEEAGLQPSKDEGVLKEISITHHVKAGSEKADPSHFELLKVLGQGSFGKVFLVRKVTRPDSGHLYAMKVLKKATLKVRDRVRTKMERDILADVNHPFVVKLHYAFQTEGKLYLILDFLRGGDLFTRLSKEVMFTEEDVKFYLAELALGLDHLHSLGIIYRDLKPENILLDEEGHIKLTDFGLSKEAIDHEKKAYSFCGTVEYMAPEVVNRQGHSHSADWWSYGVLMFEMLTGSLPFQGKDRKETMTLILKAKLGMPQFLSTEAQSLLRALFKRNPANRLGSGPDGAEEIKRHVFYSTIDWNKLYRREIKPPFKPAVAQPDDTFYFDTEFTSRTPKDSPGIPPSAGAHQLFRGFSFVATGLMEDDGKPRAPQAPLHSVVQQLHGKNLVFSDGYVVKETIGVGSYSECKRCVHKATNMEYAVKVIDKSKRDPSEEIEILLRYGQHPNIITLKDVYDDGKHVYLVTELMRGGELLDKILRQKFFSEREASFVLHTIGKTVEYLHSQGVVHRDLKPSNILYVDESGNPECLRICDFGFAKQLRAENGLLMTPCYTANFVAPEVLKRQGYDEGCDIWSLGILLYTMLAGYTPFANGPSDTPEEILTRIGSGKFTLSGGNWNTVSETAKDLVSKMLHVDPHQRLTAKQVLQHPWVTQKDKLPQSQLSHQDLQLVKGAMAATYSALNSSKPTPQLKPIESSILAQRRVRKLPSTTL
off-target kinases (Homo sapiens, UniProt P07949, M918T), sequence (P07949 29-1114 M918T): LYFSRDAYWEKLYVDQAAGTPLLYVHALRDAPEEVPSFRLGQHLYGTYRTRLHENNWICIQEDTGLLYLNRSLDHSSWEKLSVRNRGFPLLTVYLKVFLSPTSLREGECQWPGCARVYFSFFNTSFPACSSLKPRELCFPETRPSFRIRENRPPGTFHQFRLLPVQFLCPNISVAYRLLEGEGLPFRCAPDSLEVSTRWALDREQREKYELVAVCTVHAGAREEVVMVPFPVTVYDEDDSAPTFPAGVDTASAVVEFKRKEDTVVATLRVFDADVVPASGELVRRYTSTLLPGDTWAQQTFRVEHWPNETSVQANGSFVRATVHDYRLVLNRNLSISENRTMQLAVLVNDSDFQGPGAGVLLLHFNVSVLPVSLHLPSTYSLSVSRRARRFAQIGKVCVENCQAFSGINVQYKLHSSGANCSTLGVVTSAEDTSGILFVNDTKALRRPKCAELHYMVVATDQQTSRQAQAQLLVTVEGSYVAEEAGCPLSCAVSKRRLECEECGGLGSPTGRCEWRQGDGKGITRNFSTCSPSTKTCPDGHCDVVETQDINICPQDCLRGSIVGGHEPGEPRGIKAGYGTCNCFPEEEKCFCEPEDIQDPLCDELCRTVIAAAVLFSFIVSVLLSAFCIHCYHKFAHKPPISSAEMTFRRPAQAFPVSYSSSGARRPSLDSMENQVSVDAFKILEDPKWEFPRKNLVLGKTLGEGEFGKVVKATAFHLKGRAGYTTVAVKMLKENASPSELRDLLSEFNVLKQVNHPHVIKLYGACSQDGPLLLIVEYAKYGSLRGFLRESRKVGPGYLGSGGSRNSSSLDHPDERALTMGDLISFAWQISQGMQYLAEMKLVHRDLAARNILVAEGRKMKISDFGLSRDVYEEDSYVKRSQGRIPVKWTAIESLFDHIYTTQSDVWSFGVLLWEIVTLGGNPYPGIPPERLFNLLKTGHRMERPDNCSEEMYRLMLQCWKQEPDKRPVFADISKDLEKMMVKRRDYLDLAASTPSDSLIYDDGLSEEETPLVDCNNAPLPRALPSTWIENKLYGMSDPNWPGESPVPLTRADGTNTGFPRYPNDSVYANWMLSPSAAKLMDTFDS
off-target kinases (Homo sapiens, UniProt P14616), sequence (P14616 27-1297): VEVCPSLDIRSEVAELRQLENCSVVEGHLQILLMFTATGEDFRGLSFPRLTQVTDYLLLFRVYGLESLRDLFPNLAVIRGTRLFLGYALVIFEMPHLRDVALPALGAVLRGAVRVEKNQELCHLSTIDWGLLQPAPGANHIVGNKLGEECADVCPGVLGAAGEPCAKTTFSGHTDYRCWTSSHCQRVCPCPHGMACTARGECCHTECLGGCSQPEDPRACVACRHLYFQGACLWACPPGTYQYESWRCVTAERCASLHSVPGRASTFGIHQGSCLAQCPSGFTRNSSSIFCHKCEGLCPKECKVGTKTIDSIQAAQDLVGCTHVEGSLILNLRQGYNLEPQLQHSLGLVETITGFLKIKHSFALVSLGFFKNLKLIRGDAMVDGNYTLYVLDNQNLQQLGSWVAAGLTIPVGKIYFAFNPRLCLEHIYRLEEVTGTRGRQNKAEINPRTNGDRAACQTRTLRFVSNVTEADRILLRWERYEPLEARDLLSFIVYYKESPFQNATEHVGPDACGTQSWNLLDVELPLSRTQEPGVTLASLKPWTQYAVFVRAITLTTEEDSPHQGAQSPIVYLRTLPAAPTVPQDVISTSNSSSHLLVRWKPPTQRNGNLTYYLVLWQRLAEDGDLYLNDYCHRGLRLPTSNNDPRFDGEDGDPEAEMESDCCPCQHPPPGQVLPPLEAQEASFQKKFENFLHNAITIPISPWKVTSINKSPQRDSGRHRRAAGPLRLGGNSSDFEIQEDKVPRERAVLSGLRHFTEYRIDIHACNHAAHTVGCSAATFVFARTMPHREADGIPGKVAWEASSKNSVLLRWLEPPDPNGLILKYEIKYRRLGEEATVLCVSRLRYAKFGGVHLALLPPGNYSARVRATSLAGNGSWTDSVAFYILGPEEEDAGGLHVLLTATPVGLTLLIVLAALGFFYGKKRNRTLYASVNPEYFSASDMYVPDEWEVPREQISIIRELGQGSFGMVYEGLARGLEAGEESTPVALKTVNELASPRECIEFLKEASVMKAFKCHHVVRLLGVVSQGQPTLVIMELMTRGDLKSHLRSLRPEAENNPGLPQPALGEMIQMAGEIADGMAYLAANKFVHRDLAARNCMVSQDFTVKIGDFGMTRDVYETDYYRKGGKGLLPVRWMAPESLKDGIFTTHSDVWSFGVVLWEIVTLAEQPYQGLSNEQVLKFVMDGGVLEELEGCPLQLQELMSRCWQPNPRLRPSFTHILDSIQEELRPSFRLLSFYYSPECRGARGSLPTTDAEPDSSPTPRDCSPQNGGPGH

With `N#Cc1cc(-c2ncnc(Nc3ccc(N4CCN(C5COC5)CC4)cc3)n2)ccc1OC1CCOCC1` [Compound 1, 5-(4-((4-(4-(oxetan-3-yl)piperazin-1-yl)phenyl)amino)-1,3,5-triazin-2-yl)-2-((tetrahydro-2H-pyran-4-yl)oxy)benzonitrile] the inhibition (off-target kinases [1]; read-out: % Inhibition 1) was 15%, the inhibition (off-target kinases [1]; read-out: % Inhibition 2) was 11% and the inhibition (off-target kinases [1]; read-out: % Inhibition Avg) was 13%. It also gave an inhibition (off-target kinases [2]; read-out: % Inhibition 1) of 5%, an inhibition (off-target kinases [2]; read-out: % Inhibition 2) of 4% and an inhibition (off-target kinases [2]; read-out: % Inhibition Avg) of 4%. For the same molecule, the “% Inhibition 1” value (off-target kinases [3]) was −9%, the “% Inhibition 2” value (off-target kinases [3]) was −1% and the “% Inhibition Avg” value (off-target kinases [3]) was −5%. For the same molecule, the inhibition (off-target kinases [4]; read-out: % Inhibition 1) was 10%, the inhibition (off-target kinases [4]; read-out: % Inhibition 2) was 13% and the inhibition (off-target kinases [4]; read-out: % Inhibition Avg) was 12%. The inhibition (off-target kinases [5]; read-out: % Inhibition 1) was 56%, the inhibition (off-target kinases [5]; read-out: % Inhibition 2) was 51% and the inhibition (off-target kinases [5]; read-out: % Inhibition Avg) was 54%. For the same molecule, the inhibition (off-target kinases [6]; read-out: % Inhibition 1) was 17%, the inhibition (off-target kinases [6]; read-out: % Inhibition 2) was 20% and the inhibition (off-target kinases [6]; read-out: % Inhibition Avg) was 18%.
